{"source": "ChEMBL document CHEMBL6092131", "about": "“Synthesis, SAR, and application of JQ1 analogs as PROTACs for cancer therapy” (Bioorg Med Chem, 2024)", "key": {"[1]": {"tested_on": "MDA-MB-231", "assay": "Antiproliferative activity against human MDA-MB-231 cells assessed as reduction in cell viability incubated for 72 hrs by MTT assay", "assay_type": "functional, cell-based", "conditions": "MDA-MB-231, 72 h"}, "[2]": {"target": "T1, Protein cereblon/Bromodomain-containing protein 4 (Homo sapiens, UniProt O60885+Q96SW2)", "T1 sequence (Q96SW2 whole entry, looked up, other chains not shown)": "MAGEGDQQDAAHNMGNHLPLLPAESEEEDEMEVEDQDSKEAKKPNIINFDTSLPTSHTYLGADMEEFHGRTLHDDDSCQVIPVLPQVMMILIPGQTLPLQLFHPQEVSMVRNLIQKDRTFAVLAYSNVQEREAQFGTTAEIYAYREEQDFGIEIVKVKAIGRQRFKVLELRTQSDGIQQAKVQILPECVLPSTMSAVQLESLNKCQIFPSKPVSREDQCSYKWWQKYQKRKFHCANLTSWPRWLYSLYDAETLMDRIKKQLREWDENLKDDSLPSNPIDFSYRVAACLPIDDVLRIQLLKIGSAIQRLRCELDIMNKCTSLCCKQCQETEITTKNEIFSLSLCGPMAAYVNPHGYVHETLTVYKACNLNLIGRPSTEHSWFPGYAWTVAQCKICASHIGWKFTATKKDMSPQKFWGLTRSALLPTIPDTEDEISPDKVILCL", "assay": "PROTAC activity at CRBN/BRD4 in human CA46 cells assessed as protein degradation incubated for 6 hrs by Western blot analysis", "assay_type": "cell-based"}, "[3]": {"target": "T1, Protein cereblon/Bromodomain-containing protein 4", "assay": "PROTAC activity at CRBN/BRD4 in human NAMALVA cells assessed as protein degradation incubated for 6 hrs by Western blot analysis", "assay_type": "cell-based"}, "[4]": {"assay": "cells", "conditions": "Homo sapiens, Triple-negative breast cancer cell", "description": "Antiproliferative activity against human Triple-negative breast cancer cell"}, "[5]": {"tested_on": "BT-549", "assay": "Antiproliferative activity against human BT-549 cells assessed as reduction in cell viability", "assay_type": "functional, cell-based"}, "[6]": {"target": "Bromodomain-containing protein 4 (Homo sapiens, UniProt O60885)", "assay": "Binding affinity to BRD4 BD2 (unknown origin) assessed as dissociation constant by SPR assay"}, "[7]": {"target": "Protein cereblon/CREB-binding protein (Homo sapiens, UniProt Q92793+Q96SW2)", "sequence (Q92793 whole entry)": "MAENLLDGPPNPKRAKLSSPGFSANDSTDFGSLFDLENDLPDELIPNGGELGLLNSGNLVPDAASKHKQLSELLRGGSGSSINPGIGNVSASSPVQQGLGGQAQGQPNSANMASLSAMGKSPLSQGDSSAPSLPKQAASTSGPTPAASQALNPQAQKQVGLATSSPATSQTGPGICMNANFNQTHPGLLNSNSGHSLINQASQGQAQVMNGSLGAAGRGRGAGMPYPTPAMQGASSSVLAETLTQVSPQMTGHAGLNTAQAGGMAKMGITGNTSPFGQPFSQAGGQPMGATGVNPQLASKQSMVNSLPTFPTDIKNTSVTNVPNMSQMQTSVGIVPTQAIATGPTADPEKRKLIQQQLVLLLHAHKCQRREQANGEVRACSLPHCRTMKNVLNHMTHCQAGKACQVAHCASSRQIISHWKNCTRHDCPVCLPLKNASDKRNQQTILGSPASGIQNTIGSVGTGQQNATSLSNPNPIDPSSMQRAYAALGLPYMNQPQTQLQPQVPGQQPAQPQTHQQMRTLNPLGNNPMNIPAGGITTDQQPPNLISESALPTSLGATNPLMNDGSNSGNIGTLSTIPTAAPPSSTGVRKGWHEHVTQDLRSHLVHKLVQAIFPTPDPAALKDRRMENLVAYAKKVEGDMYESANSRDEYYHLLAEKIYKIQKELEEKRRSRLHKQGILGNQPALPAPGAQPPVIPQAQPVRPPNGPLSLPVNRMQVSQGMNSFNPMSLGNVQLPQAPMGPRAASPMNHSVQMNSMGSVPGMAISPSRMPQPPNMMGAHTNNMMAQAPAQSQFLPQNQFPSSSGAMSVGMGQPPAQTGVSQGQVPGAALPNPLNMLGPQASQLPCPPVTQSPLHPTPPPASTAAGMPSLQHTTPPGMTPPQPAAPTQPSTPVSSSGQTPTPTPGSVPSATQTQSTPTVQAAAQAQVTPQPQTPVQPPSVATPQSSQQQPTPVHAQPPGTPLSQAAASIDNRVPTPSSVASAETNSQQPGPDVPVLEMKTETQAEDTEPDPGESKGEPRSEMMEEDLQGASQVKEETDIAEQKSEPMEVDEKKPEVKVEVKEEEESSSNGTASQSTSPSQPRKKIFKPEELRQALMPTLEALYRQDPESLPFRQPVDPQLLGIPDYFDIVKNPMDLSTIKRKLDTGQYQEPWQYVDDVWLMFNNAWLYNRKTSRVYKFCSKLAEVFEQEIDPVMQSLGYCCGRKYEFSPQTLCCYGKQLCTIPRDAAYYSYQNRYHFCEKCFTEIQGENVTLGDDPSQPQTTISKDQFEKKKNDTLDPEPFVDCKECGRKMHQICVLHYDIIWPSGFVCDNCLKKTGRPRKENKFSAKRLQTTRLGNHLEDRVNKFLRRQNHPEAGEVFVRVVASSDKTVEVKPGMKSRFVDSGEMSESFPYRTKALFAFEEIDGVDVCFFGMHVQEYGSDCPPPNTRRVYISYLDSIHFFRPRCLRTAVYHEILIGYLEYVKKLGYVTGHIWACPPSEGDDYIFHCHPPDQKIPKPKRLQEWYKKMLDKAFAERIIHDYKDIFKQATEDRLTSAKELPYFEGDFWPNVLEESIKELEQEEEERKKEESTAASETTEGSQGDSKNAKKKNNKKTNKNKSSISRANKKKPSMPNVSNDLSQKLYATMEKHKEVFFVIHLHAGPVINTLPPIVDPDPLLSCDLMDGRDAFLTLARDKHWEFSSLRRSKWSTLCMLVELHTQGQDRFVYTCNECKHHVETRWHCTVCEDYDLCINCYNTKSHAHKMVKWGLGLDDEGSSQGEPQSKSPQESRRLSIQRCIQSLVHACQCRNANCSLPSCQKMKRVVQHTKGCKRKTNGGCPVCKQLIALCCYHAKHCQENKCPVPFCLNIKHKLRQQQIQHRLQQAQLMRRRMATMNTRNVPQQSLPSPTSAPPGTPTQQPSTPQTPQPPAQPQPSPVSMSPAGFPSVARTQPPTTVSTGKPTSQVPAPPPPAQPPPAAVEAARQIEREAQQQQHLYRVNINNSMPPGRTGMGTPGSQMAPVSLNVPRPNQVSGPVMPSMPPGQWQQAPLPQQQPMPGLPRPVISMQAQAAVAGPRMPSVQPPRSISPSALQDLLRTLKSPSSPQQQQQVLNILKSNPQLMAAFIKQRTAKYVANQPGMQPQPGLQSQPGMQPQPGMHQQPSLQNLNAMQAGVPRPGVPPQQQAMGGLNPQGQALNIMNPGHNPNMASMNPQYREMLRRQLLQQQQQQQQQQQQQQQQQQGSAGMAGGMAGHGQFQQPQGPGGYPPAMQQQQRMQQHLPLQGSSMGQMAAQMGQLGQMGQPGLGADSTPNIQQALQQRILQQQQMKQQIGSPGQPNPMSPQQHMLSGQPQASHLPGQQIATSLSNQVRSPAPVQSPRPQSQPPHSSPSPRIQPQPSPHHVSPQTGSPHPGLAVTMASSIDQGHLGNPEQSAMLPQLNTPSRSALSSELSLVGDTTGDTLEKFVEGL", "sequence (Q96SW2 whole entry)": "as the sequence (Q96SW2 whole entry, looked up, other chains not shown) above", "assay": "PROTAC activity at CBP/CRBN in human VCaP cells assessed as protein degradation incubated for 24 hrs by Western blot analysis", "assay_type": "cell-based"}, "[8]": {"assay": "Cytotoxicity against human HAP1 cells assessed as reduction in cell viability measured for 24 hrs by SRB assay", "assay_type": "functional, cell-based", "conditions": "HAP1, 24 h"}, "[9]": {"tested_on": "LNCaP", "assay": "Antiproliferative activity against human LNCaP cells assessed as inhibition of cell viability incubated for 48 hrs by CellTiter-Glo assay", "assay_type": "functional, cell-based"}, "[10]": {"target": "von Hippel-Lindau disease tumor suppressor/Bromodomain-containing protein 4 (Homo sapiens, UniProt O60885+P40337)", "sequence (P40337 whole entry, looked up, other chains not shown)": "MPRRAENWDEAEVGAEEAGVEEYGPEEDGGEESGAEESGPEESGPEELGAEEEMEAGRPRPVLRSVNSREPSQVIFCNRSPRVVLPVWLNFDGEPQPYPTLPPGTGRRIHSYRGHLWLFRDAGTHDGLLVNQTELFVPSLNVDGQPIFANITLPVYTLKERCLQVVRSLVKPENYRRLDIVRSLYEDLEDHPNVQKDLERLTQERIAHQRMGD", "assay": "PROTAC activity at VHL/BRD4 in human HeLa cells assessed as protein degradation of BRD4 incubated for 24 hrs by Western blot analysis", "assay_type": "cell-based"}, "[11]": {"tested_on": "MV4-11", "assay": "Cytotoxicity against human MV4-11 cells assessed as reduction in cell viability incubated for 72 hrs by cell titer glo assay", "assay_type": "functional, cell-based", "conditions": "MV4-11, 72 h"}}, "note": "pIC50, pKd: −log10 of the molar value.", "data": [{"smiles": "Cc1sc2c(c1C)C(c1ccc(Cl)cc1)=N[C@@H](CC(=O)NCCCCOc1ccc(Oc3ccc(N(Cc4ccccc4)C(=O)CCl)cc3)cc1)c1nnc(C)n1-2", "values": [{"measurement": "pIC50", "setting": "[1]", "result": 6.27}]}, {"smiles": "Cc1sc2c(c1C)C(c1ccc(Cl)cc1)=N[C@@H](CC(=O)Nc1ccc(OCCOCCOCCOCCCc3cccc4c3C(=O)N(C3CCC(=O)NC3=O)C4=O)cc1)c1nnc(C)n1-2", "note": "(stereo partly specified)", "values": [{"measurement": "DC50", "setting": "[2]", "result": "< 1", "unit": "nM"}, {"measurement": "DC50", "setting": "[3]", "result": "< 1", "unit": "nM"}]}, {"smiles": "Cc1sc2c(c1C)C(c1ccc(Cl)cc1)=N[C@@H](CC(=O)OC(C)(C)C)c1nnc(C)n1-2", "values": [{"measurement": "pIC50", "setting": "[4]", "result": 5.00}, {"measurement": "pIC50", "setting": "[5]", "result": 5.28}]}, {"smiles": "CC(=O)N[C@H](C(=O)N1C[C@H](O)C[C@H]1C(=O)NCc1ccc(-c2scnc2C)cc1)C(C)(C)SCCCCCCNC(=O)C[C@@H]1N=C(c2ccc(Cl)cc2)c2c(sc(C)c2C)-n2c(C)nnc21", "values": [{"measurement": "pKd", "setting": "[6]", "result": 8.36}]}, {"smiles": "Cc1ncsc1-c1ccc([C@H](C)NC(=O)[C@@H]2C[C@@H](O)CN2C(=O)[C@@H](NC(=O)COCCCOCCNC(=O)C[C@@H]2N=C(c3ccc(Cl)cc3)c3c(sc(C)c3C)-n3c(C)nnc32)C(C)(C)C)cc1", "values": [{"measurement": "DC50", "setting": "[7]", "result": 5, "unit": "nM"}]}, {"smiles": "Cc1sc2c(c1C)C(c1ccc(Cl)cc1)=N[C@@H](CC(=O)NCCCCOc1ccc(C3CC(c4ccc(Br)cc4)=NN3C(=O)CCl)cc1)c1nnc(C)n1-2", "note": "(stereo partly specified)", "values": [{"measurement": "pIC50", "setting": "[8]", "result": 6.33}]}, {"smiles": "CN[C@@H](C)C(=O)N[C@H](C(=O)N1CCC[C@H]1c1nc(C(=O)c2cccc(OCCOCCOCCOCCNC(=O)C[C@@H]3N=C(c4ccc(Cl)cc4)c4c(sc(C)c4C)-n4c(C)nnc43)c2)cs1)C1CCCCC1", "values": [{"measurement": "pIC50", "setting": "[9]", "result": 7.11}]}, {"smiles": "Cc1ncsc1-c1ccc2c(c1)OCCOCCOC[C@@H](NC(=O)C[C@@H]1N=C(c3ccc(Cl)cc3)c3c(sc(C)c3C)-n3c(C)nnc31)COCCOCCOCC(=O)N[C@@H](C(C)(C)C)C(=O)N1C[C@H](O)C[C@H]1C(=O)NC2", "values": [{"measurement": "DC50", "setting": "[10]", "result": 640, "unit": "nM"}, {"measurement": "pIC50", "setting": "[11]", "result": 6.52}]}]}
